Measured values as given in patent US20180215710A1, “METHODS FOR INHIBITING NATIVE AND PROMISCUOUS UPTAKE OF MONOAMINE NEUROTRANSMITTERS” (priority 2011, published 2018).
Entries after “also recorded” stand apart in the source; their conditions may differ.

Legend:
[1] = target: T1, serotonin transporters (SERT) (Homo sapiens, UniProt P31645); experiment: Brain SERT occupancy by PET with [11C]DASB tracer, Phase 1 single-dose study; assay type: in vivo; details: N = 3
T1 construct: from tissue; host or cells: living human brain (3 healthy adult male volunteers), PET with [11C]DASB
T1 sequence (P31645 whole entry): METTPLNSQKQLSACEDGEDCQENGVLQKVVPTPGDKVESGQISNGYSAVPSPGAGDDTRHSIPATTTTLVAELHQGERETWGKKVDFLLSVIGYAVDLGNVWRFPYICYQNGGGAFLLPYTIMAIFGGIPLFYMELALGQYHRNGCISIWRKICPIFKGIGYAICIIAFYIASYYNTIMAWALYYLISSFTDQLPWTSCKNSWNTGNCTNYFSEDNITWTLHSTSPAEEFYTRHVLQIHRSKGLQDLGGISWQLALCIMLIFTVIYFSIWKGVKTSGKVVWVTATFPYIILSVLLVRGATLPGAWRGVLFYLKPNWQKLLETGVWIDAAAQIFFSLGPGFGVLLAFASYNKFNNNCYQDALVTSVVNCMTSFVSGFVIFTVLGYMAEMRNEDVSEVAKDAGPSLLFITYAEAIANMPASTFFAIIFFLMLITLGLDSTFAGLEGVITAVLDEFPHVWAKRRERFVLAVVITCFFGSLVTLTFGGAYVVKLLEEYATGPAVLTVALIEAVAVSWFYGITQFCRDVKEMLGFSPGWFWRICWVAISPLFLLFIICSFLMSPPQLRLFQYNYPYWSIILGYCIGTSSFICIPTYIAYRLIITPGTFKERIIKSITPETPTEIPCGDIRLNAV
Excerpt: This study was a Phase 1, single-dose, randomized, open-label study using positron emission tomography (PET) and [^11C]DASB ([^11C]N,N-dimethyl-2-(2-amino-4-cyanophenylthio) benzylamine) as a PET tracer in 3 healthy, young, adult male volunteer subjects. Using PET imaging, uptake inhibitor effects may be measured based on the proportion of SERT sites blocked in the brain.
(§1) PET scans were done at baseline and at 2 and 7-hour post-dose via measurement of [^11C]DASB tracer binding. Periodic blood samples were collected for evaluation of (+)-1-(3,4-dichlorophenyl)-3-azabicyclo[3.1.0]hexane PK. Safety was monitored by clinical and laboratory evaluations, including vital signs, physical examination, clinical chemistry, hematology, urinalysis, and ECG.

[2] = test system: patients with Major Depressive Disorder; experiment: Phase 2 six week double-blind placebo-controlled study in patients with Major Depressive Disorder; assay type: in vivo, human; details: for CGI-I in comparison to placebo (in words): MITT n=56, MMRM
Excerpt: Subjects were identified who were between the ages of 18-65 (inclusive), and met criteria for Major Depressive Disorder in accordance with the Diagnostic and Statistical manual of Mental Disorders-IV-TR and confirmed by the MINI International Neuropsychiatric Interview. […] They were also required to have a BMI≤35 and body weight>45 kg at the Screening Visit. […] Subjects were required to refrain from taking antidepressants, anticonvulsants including gabapentin and pregabalin, neuroleptics, MAO inhibitors, barbiturates, benzodiazepines, stimulants, antipsychotics, lithium, anxiolytics and beta blockers starting two weeks prior to the study and continuing until after the follow-up visit. Subjects were evaluated for safety parameters prior to and throughout the trial by a variety of measures including electrocardiogram, physical examination, vital signs and body weight, and clinical laboratory testing including a lipid panel, CBC with differential and urinalysis. […] Efficacy was determined by measuring the change from baseline in the Montgomery-Åsberg Depression Rating Scale (MADRS), the HAMD-17, the Clinical Global Impression Global Improvement Scale (CGI-1), the Clinical Global Impression-Severity scale (CGI-S) and the Derogatis Interview for Sexual Functioning Self-Report (DISF-SR). […] Comparisons between treatment groups based on MADRS (the primary efficacy parameter), […] and CGI-S scores were analyzed using a mixed-repeated measures (MMRM) analysis model including factors for Subject, Visit, Treatment Arm and Baseline value as a covariate. Adjusted least-squares means from these models are presented. Comparisons between groups were made at each post-baseline visit using model-based contrasts and adjusted degrees of freedom. For these analyses no explicit data imputations were made prior to the analysis. Response and remission categorical data were analyzed using chi-square tests. Inferential analyses of safety data were conducted with ANOVA models or chi-square tests. Two-tail alpha was set to 0.05. All analyses were conducted using SAS version 9.2.

[3] = Plasma concentration in Phase 1 single-dose PET study; assay type: in vivo, human; details: ~7 h after single oral dose of 150 mg, N = 3
Excerpt: as §1

[4] = Safety monitoring in Phase 1 single-dose PET study; assay type: in vivo, human; details: single oral dose of 150 mg
Excerpt: as §1

[5] = test system: extracellular norepinephrine and dopamine in prefrontal cortex; details: Bymaster et al. 2002a; cited from earlier work
[6] = ~2 h after single oral dose of 150 mg
[7] = ~7 h after single oral dose of 150 mg
[8] = 100 mg, Visit 8, LOCF, Completers, 50% reduction or more of baseline total score
[9] = six week double-blind, MITT n=56, MMRM LS means

For Clc1ccc(C23CNCC2C3)cc1Cl (single isomer, unassigned; (+)) [(+)-1-(3,4-dichlorophenyl)-3-azabicyclo[3.1.0]hexane], the “Mean SERT Occupancy, Mean” value [1, 6] was “approximately 48%”, the “Mean SERT Occupancy, Striatum” value [1, 6] was 48% and the “Mean SERT Occupancy, Thalamus” value [1, 6] was 48%. The “Mean SERT Occupancy, Striatum” value [1, 7] was 32%, the “Mean SERT Occupancy, Thalamus” value [1, 7] was 33% and the tolerability ([2]; 50 mg/day then 100 mg/day) was “relatively well tolerated”. For the same compound, the “remission rates by CGI-S score of ≤2 compared to placebo (in words)” value ([2]; 100 mg, LOCF) was “significantly greater remission rates”, the “Response rate HAMD-17” value [2, 8] was “(11/20) 55.00%” and the “Response rate MADRS” value [2, 8] was “(8/20) 40.00%”. The “Remission rate CGI-S” value ([2]; 100 mg, Visit 8, LOCF, Completers, CGI-S ≤ 2) was “(7/20) 35.00%”, the “Remission rate HAMD-17” value ([2]; 100 mg, Visit 8, LOCF, Completers, HAMD-17 ≤ 7) was “(4/20) 20.00%” and the “Remission rate MADRS” value ([2]; 100 mg, Visit 8, LOCF, Completers, MADRS ≤ 12) was “(6/20) 30.00%”. The “anhedonia factor score of the MADRS compared to placebo (in words)” value ([2]; MITT n=56, MMRM LS means, listed as EB-1010) was “statistically significant improvement”, the “Anhedonia factor difference placebo vs drug” value ([2]; Visit 8, MMRM, MITT) was 1.41 and the “CGI-I difference placebo vs drug” value ([2]; Visit 8, MMRM, MITT) was 0.62. The “CGI-S difference placebo vs drug” value ([2]; Visit 8, MMRM, MITT) was 0.22, the “HAMD-17 difference placebo vs drug” value ([2]; Visit 8, MMRM, MITT) was 3.12 and the “MADRS difference placebo vs drug” value ([2]; Visit 8, MMRM, MITT) was 3.83. For the same compound, the “Anhedonia factor (LS Mean − SE)” value ([2]; Visit 8, MMRM, MITT, n = 30) was 7.92 (0.50), the “CGI-I (LS Mean − SE)” value ([2]; Visit 8, MMRM, MITT, n = 30) was 2.13 (0.20) and the “CGI-S (LS Mean − SE)” value ([2]; Visit 8, MMRM, MITT, n = 30) was 3.31 (0.15). For the same compound, the “HAMD-17 (LS Mean − SE)” value ([2]; Visit 8, MMRM, MITT, n = 30) was 14.90 (1.40), the “overall statistical effect size (Cohen's d), MADRS total score” value ([2]; Week 6, vs placebo) was −0.63 and the “discontinuation due to AEs” value ([2]; compared with placebo) was “Two patients in each treatment group discontinued the study early due to AEs”. The “heart rate, systolic or diastolic blood pressure compared to placebo” value ([2]; human, in vivo) was “did not result in significant increases”, the “serious AEs” value ([2]; human, in vivo) was “no serious AEs were reported” and the weight gain ([2]; human, in vivo) was “not associated with significant weight gain”. For the same compound, the “percentage of patients who reported an adverse treatment event” value ([2]; placebo 39.28%) was 30.30%, the “CGI-I in comparison to placebo (in words)” value ([2]; six week double-blind) was “statistically significantly superior to placebo” and the “CGI-S in comparison to placebo (in words)” value [2, 9] was “improvement”. For the same compound, the “HAM-D in comparison to placebo (in words)” value [2, 9] was “decrease”, the “MADRS total score in comparison to placebo (in words)” value [2, 9] was “statistically significantly superior” and the “MADRS total score in comparison to placebo (in words)” value ([2]; six week double-blind, MITT n=56, MMRM LS means, listed as EB-1010) was “decrease”. The “CGI-I in comparison to placebo (in words)” value ([2]; six week double-blind, listed as EB-1010) was “decrease”, the “efficacy in treating depression (in words)” value ([2]; titrated dose of 50 mg/day then 100 mg/day) was “effective for treatment of patients with MDD; also recorded: efficacious in treating depression” and the “Mean Plasma Concentration” value [3] was ~405 ng/mL. For the same compound, the “discontinuation due to a clinical or laboratory adverse experience” value [4] was “no subjects were discontinued”, the laboratory safety tests [4] was “no clinically meaningful changes” and the “physical examinations and ECGs” value [4] was “no clinically meaningful changes from pre-dose evaluations”. For the same compound, the “vital sign measurements (blood pressure, pulse rate, respiratory rate, oral temperature)” value [4] was “No dose-related changes”, the serious adverse events ([4]; 3 healthy male subjects) was “No serious adverse events were reported” and the “total adverse events reported by one subject” value ([4]; rated definitely not related to study drug) was 5.
For CNCC[C@@H](Oc1ccccc1C)c1ccccc1 [atomoxetine], the “extracellular norepinephrine and dopamine concentrations in prefrontal cortex” value [5] is listed as “increased extracellular norepinephrine and dopamine concentrations”.
